Test results taken from patent US7473790B2 (Pfizer Inc., priority 2003, dated 2009).
pIC50: −log10 of the molar value.

Biological target: T1, HCV polymerase (Hepatitis C virus genotype 1b, UniProt P26663)
T1 construct: 2.5 pmoles (0.15 μg) HCV polymerase protein in a final volume of 75 μL
Assay: HCV polymerase primer/template-directed transcription assay (32P-GTP incorporation, filter binding)
Type: biochemical
Settings: for pIC50: recombinant HCV polymerase, 30 minutes at 30° C., concentration giving 50% inhibition of polymerase-directed transcription, read-out: IC50
Outline: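 IC50s come from triplicate cpm, refit with an enzyme-concentration (30 nM) correction when under 200 nM. Reactions ran 30 min at 30° C in Tris pH 7.2 with MgCl2, 1 μM GTP spiked with α-32P-GTP, biotin-dG12 primer and poly(rC)300 template, with 1% DMSO. Incorporated label was collected on DE filtermats and counted.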

T1 sequence (P26663 2420-3010): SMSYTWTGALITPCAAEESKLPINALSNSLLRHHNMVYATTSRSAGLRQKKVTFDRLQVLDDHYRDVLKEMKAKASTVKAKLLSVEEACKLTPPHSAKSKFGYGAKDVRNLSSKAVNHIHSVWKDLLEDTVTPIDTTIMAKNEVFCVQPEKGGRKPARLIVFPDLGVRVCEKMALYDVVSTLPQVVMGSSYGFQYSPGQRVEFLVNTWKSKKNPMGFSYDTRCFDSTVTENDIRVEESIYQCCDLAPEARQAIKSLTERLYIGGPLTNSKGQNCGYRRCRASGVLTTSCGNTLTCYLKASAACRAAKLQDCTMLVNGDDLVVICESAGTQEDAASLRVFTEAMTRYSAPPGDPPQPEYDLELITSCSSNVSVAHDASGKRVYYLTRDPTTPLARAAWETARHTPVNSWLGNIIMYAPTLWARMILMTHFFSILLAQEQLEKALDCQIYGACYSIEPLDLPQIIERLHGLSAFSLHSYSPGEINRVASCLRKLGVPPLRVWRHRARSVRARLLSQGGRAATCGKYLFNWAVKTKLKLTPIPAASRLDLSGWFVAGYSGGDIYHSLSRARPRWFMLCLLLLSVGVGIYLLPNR

| SMILES | pIC50 | inhibition at 50 µM (@ 50 uM compound, given where IC50 was impractical to calculate, read-out: percent inhibition) [%] |
| --- | --- | --- |
| Cc1nc(CC2=C(O)CC(CCc3ccc(OC(F)F)c(Cl)c3)(C3CCCC3)OC2=O)n(C)n1 (stereo not drawn) [B(74), 6-{2-[3-Chloro-4-(difluoromethoxy)phenyl]ethyl}-6-cyclopentyl-3-[(1,3-dimethyl-1H-1,2,4-triazol-5-yl)methyl]-4-hydroxy-5,6-dihydro-2H-pyran-2-one] | 5.47 |  |
| Cc1cc(C)n2nc(CC3=C(O)CC(CCc4ccc(OC(C)C)cc4)(C4CCCC4)OC3=O)nc2n1 (stereo not drawn) [B(34)] | 7.52 |  |
| CC(C)(C)c1cc(CCC2(C3CCCC3)CC(=O)CC(=O)O2)ccc1O (stereo not drawn) [A(02), 6-[2-(3-tert-Butyl-4-hydroxy-phenyl)-ethyl]-6-cyclopentyl-dihydro-pyran-2,4-dione] | 5.62 |  |
| Cc1cc(C)n2nc(CC3=C(O)CC(CCc4ccc(N(C)S(C)(=O)=O)cc4)(C4CCCC4)OC3=O)nc2n1 (stereo not drawn) [A(133), 6-cyclopentyl-3-[(5,7-dimethyl[1,2,4]triazolo[1,5-a]pyrimidin-2-yl)methyl]-4-hydroxy-6-[2-(4-{methyl[methyl(dimethylene)-I^6-sulfanyl]amino}phenyl)ethyl]-5,6-dihydro-2H-pyran-2-one] | 7.14 |  |
| Cc1cc(C)n2nc(SC3=C(O)CC(C)(C4CCCC4)OC3=O)nc2n1 (stereo not drawn) [C(17), 6-Cyclopentyl-3-(5,7-dimethyl-[1,2,4]triazolo[1,5-a]pyrimidin-2-ylsulfanyl)-4-hydroxy-6-methyl-5,6-dihydro-pyran-2-one] |  | 2 |
| CC(C)Oc1ccc(CCC2(C3CCCC3)CC(O)=C(Cc3nc4cc(Cl)ccc4n3C(C)C)C(=O)O2)cc1F (stereo not drawn) [B(14), 3-(5-Chloro-1-isopropyl-1H-benzoimidazol-2-ylmethyl)-6-cyclopentyl-6-[2-(3-fluoro-4-isopropoxy-phenyl)-ethyl]-4-hydroxy-5,6-dihydro-pyran-2-one] | 6.20 |  |
| O=C1CC(=O)OC(CCc2ccc(-c3ccccc3)c(F)c2)(C2CCCC2)C1 (stereo not drawn) [A(09), 6-Cyclopentyl-6-[2-(2-fluoro-biphenyl-4-yl)-ethyl]-dihydro-pyran-2,4-dione] | 5.26 |  |
| COc1cc(OC)c(CCC2(C3CCCC3)CC(O)=C(Sc3nc(O)cc(C(F)(F)F)n3)C(=O)O2)cc1Cl (stereo not drawn) [C(74), 6-[2-(5-chloro-2,4-dimethoxyphenyl)ethyl]-6-cyclopentyl-4-hydroxy-3-{[4-hydroxy-6-(trifluoromethyl)pyrimidin-2-yl]thio}-5,6-dihydro-2H-pyran-2-one] | 7.00 |  |
| CCOc1ccc(CCC2(C3CCCC3)CC(O)=C(Cc3nc4nc(C)cc(C)n4n3)C(=O)O2)cc1Cl (stereo not drawn) [B(20), 6-[2-(3-Chloro-4-ethoxy-phenyl)-ethyl]-6-cyclopentyl-3-(5,7-dimethyl-[1,2,4]triazolo[1,5]pyrimidin-2-ylmethyl)-4-hydroxy-5,6-dihydro-pyran-2-one] | 8.40 |  |
| CCc1cc(CCC2(C3CCCC3)CC(=O)C(Cc3nc4nc(C)cc(C)n4n3)C(=O)O2)ccc1N(C)S(C)(=O)=O (stereo not drawn) [B(91), 6N-[4-(2-{2-cyclopentyl-5-[(5,7-dimethyl[1,2,4]triazolo[1,5-a]pyrimidin-2-yl)methyl]-4,6-dioxotetrahydro-2H-pyran-2-yl}ethyl)-2-ethylphenyl]-N-methylmethanesulfonamide] | 8.00 |  |
| CCc1cc(CCC2(C3CCCC3)CC(O)=C(Cc3nc4nc(C)cc(C)n4n3)C(=O)O2)ccc1OCCNC(C)=O (stereo not drawn) [A(139), N-{2-[4-(2-{2-cyclopentyl-5-[(5,7-dimethyl[1,2,4]triazolo[1,5-a]pyrimidin-2-yl)methyl]-4-hydroxy-6-oxo-3,6-dihydro-2H-pyran-2-yl}ethyl)-2-ethylphenoxy]ethyl}acetamide] | 8.70 |  |
| CCC1(c2ccc(CCC3(C4CCCC4)CC(=O)CC(=O)O3)cc2Cl)CC(=O)CC(=O)O1 (stereo not drawn) [A(30), 6-[2-(3-Chloro-4-(6-Ethyl-dihydro-pyran-2,4-dione)-phenyl)-ethyl]-6-cyclopentyl-dihydro-pyran-2,4-dione] | 6.08 |  |
